What was measured:
[1] = test system: carrageenin edema in rat's paw; assay: Carrageenin Edema Test in Rat's Paw (anti-inflammatory activity); format: in vivo, Female Wistar rats; conditions: oral
Description: A standard method of Carrageenin Edema Test in Rat's Paw described in C. A. Winter et al., Proc. Soc. Exp. Biol. Med., 111, 544 (1962) was employed.
[…] One hour later, the pad of a hind paw of the rat was injected with 0.1 ml of 1% aqueous carrageenin solution. The volume of the paw was measured both before the injection of carrageenin and three hours after the injection.
The edema inhibition percentage of the test compound was calculated from the ratio of the increase in the volume of the affected paw of the test animals to the increase in the volume of the affected paw of the controls.
The anti-inflammatory activity of the 3-aminoindazole derivative hydrochloric acid salts of this invention was measured.
The anti-inflammatory activity of the 3-aminoindazole derivative hydrochloric acid salts obtained by Examples 1-49 of this invention was measured by the standard method of carrageenin edema test. In these tests, the amount of the administration of the salts was 100 mg/kg. The results are shown in Table 17 (Inhibition (%) was measured three hours after the injection).

primary inflammation = conditions: Silvest et al., Arzneim-Forsch, 16, 59 (1966); cited from earlier work

CN(C)CCCOc1nn(Cc2ccccc2)c2ccccc12 [Compound C-4, 1-benzyl-3-(3-dimethylaminopropoxy)indazole, reference compound]
Inhibition (carrageenin edema), Table 2 ([1]; 25 mg/kg): 8%
Inhibition (carrageenin edema), Table 2 ([1]; 50 mg/kg): 20%
Inhibition (carrageenin edema), Table 2 ([1]; 100 mg/kg): 51%
Effect against primary inflammation (primary inflammation): effective against primary inflammation

— US4549023A, “3-Aminoindazole derivatives” (priority 1980, dated 1985)
